Measured values reported in patent US20040229872A1, “Substituted cyclohexane-1,4-diamine compounds with anti-diarrhea and peripheral analgesic activity” (Gruenenthal GmbH, priority 2001, published 2004).

Legend:
mice [1] = settings: mouse, in vivo, po
mice [2] = settings: mouse, in vivo
mice [3] = experiment: animal or person; settings: Mus musculus, iv, read-out: Analgesia, tail flick test in mice, i.v., ED50
mice [4] = experiment: PGE2-induced diarrhea in mice; format: in vivo

## CN(C)C(=O)C(CCN1CCC(O)(c2ccc(Cl)cc2)CC1)(c1ccccc1)c1ccccc1 [Loperamide, loperamide]
Mice [1]
  Carbon passage, mice, ED50 p.o.: ED50 p.o. = ˜15 μM
Mice [2]
  action on the central nervous system (in words): always has a measurable action
Mice [2]; iv
  tail flick test in mice, i.v.: toxic side effects from: toxic from 0.464
Mice [3]
  ED50: > 0.562 mg/kg
Mice [4]; Mus musculus, iv, read-out: ED50 Value (mg/kg) i.v.
  ED50: 0.41 mg/kg
Mice [4]; mouse, in vivo, iv
  PGE2-diarrhea, mice, ED50 i.v.: ED50 i.v. = 0.41 μM
Mice [4]; mouse, in vivo, po
  PGE2-diarrhea, mice, ED50 p.o.: ED50 p.o. = 9.34 μM
